Test results taken from patent publication US20150080475A1, “Memantine Protects Inflammation-Related Degeneration of Dopamine Neurons Through Inhibition of Over-Activated Microglia and Release of Neurotrophic Factors From Astroglia” (priority 2009, published 2015).

Tested on: DA neurons
Assay: MPP+-induced reduction in DA uptake in neuron-enriched cultures
Format: cell-based
Settings: MPP+ 0.25 μM, seven days, neuron-enriched cultures
Description: Mesencephalic neuron-glia cultures were seeded (5×10^5/well) in 24 well plates precoated with poly D-lysine. Thirty-six hours postseeding, 5-10 μM cytosine β-D-arabinofuranoside was added to the culture. After 2 days, the cytosine β-D-arabinofuranoside was removed and replaced with fresh media. Neuron-enriched cultures are 98% pure, as indicated by ICC staining with OX-42 and GFAP antibodies. Neuron-enriched cultures were treated 7 days post-seeding. For microglia add-back cultures, the microglia were plated on top of the neuron-enriched culture at 6 days postseeding, resulting in the addition of either 10% (500 μL of 1×10^5) or 20% (500 μL of 2×10^5) microglia. […]
Cells were incubated in Krebs-Ringer buffer (16 mM NaH2PO4, 1.2 mM MgSO4, 1.3 mM EDTA, […], for 21 min at 37° C. with 1 μM [^3H] DA. Nonspecific uptake was blocked for DA with 10 μM mazindole. After incubation, cells were washed three times with 1 mL/well of ice-cold Krebs-Ringer buffer. Cells were then lysed with 0.5 mL/well of 1 N NaOH and mixed with 15 mL of scintillation fluid. Radioactivity was measured on a scintillation counter, where specific [^3H] DA uptake was calculated by subtracting the mazindole.
To determine whether the neuroprotective effect of MMT was dependent on the presence of glial cells, the effects of MMT on the neuron-enriched cultures were determined. […]

C[n+]1ccc(-c2ccccc2)cc1 [MPP^+]
reduction of DA uptake compared with control cultures: 31%
